From ChEMBL document CHEMBL5724696, “Autophagy assay results for EUbOPEN Chemogenomics Library” (2024)
Several values for one entry are separate records, joined by “and”; a condition that tells them apart may be missing. Equal entries are not always repeated.

Tests used:
Assay type in all cases: functional, Homo sapiens
TERT-RPE1 = test: (§1) Here: values are normalized to the negative (DMSO; defined as 0% autophagy induction) and positive (250nM Torin1; mTOR inhibitor; defined as maximal inducer of autophagy = 100%) control compounds and represented as % of autophagy induction. […] The impact of autophagy induction on cells is complex and depends on the affected target. As such, the magnitude of a phenotype may not be equally mirrored in the %-value of autophagy induction and vice versa. The dynamics of the induction may indicate the mode of activation: e.g. activation via phosphorylation or a signaling cascade may occur fast, while activation via transcription factors may take considerably longer. […] Of note, treatment concentrations may be sub-optimal for specific compounds, leading to false negative annotations.; details: Culturing Media DMEM/F12 (1:1), 1 % Penicillin/Streptomycin, 10% Fetal bovin serum Add-On: No, Screening Media Control DMEM/F12 (1:1), Screening Media Samples DMEM/F12 (1:1)
U2OS [1] = test: as §1; details: Culturing Media DMEM, 1 % Penicillin/Streptomycin, 10% Fetal bovin serum Add-On: No, Screening Media Control DMEM, Screening Media Samples DMEM
U2OS [2] = test: as §1; details: Culturing Media DMEM, 1 % Penicillin/Streptomycin, 10% Fetal bovin serum Add-On: No, Screening Media Control DMEM, Screening Media Samples DMEM; remark: listed apart in the source
[3] = Compound Concentration 0.5 uM, Timepoint 12 hours
[4] = Compound Concentration 0.5 uM, Timepoint 24 hours
[5] = Compound Concentration 0.5 uM, Timepoint 36 hours
[6] = Compound Concentration 0.5 uM, Timepoint 60 hours
[7] = Compound Concentration 2 uM, Timepoint 12 hours
[8] = Compound Concentration 2 uM, Timepoint 24 hours
[9] = Compound Concentration 2 uM, Timepoint 36 hours
[10] = Compound Concentration 2 uM, Timepoint 60 hours
[11] = Compound Concentration 10 uM, Timepoint 12 hours
[12] = Compound Concentration 10 uM, Timepoint 24 hours
[13] = Compound Concentration 10 uM, Timepoint 36 hours
[14] = Compound Concentration 10 uM, Timepoint 60 hours

For `O=C(Nc1ccc(Cl)cc1)Nc1cccc(-c2cccc(N3CCCC3)n2)c1`, the autophagy induction (TERT-RPE1; [3]) was -4.744%, the autophagy induction (TERT-RPE1; [4]) was -3.44% and the autophagy induction (TERT-RPE1; [5]) was 1.901%. For the same molecule, the autophagy induction (TERT-RPE1; [6]) was 11.3473%, the autophagy induction (TERT-RPE1; [7]) was -2.257% and the autophagy induction (TERT-RPE1; [8]) was -2.102%. It also gave an autophagy induction (TERT-RPE1; [9]) of -2.6063%, an autophagy induction (TERT-RPE1; [10]) of -0.1832% and an autophagy induction (TERT-RPE1; [11]) of -0.5349%. The autophagy induction (TERT-RPE1; [12]) was 20.6675%, the autophagy induction (TERT-RPE1; [13]) was 44.4615% and the autophagy induction (TERT-RPE1; [14]) was 64.0305%. For the same molecule, the autophagy induction (U2OS [1]; [3]) was 3.433%, the autophagy induction (U2OS [1]; [4]) was -0.7352% and the autophagy induction (U2OS [1]; [5]) was -0.9133%. The autophagy induction (U2OS [1]; [6]) was -1.608%, the autophagy induction (U2OS [1]; [7]) was -0.4509% and the autophagy induction (U2OS [1]; [8]) was -1.587%. For the same molecule, the autophagy induction (U2OS [1]; [9]) was -2.698%, the autophagy induction (U2OS [1]; [10]) was -2.799% and the autophagy induction (U2OS [1]; [11]) was -2.177%. For the same molecule, the autophagy induction (U2OS [1]; [12]) was -0.7353%, the autophagy induction (U2OS [1]; [13]) was -4.281% and the autophagy induction (U2OS [1]; [14]) was 0.461%. It also gave an autophagy induction (U2OS [2]; [3]) of 17.3616%, an autophagy induction (U2OS [2]; [4]) of 17.7757% and an autophagy induction (U2OS [2]; [5]) of 11.2699%. The autophagy induction (U2OS [2]; [6]) was 1.747%, the autophagy induction (U2OS [2]; [7]) was 20.6353% and the autophagy induction (U2OS [2]; [8]) was 15.806%. For the same molecule, the autophagy induction (U2OS [2]; [9]) was 8.553%, the autophagy induction (U2OS [2]; [10]) was 8.133% and the autophagy induction (U2OS [2]; [11]) was -2.269%. It also gave an autophagy induction (U2OS [2]; [12]) of 13.0876%, an autophagy induction (U2OS [2]; [13]) of 22.7984% and an autophagy induction (U2OS [2]; [14]) of 31.1337%.

For `CCCCC#Cc1nc(NC)c2ncn([C@@H]3O[C@H](CO)[C@@H](O)[C@H]3O)c2n1`, the autophagy induction (TERT-RPE1; Compound Concentration 0.5 uM, Timepoint 12 hours, 12 h, 0.5 µM) was -2.336% and -0.4442%, the autophagy induction (TERT-RPE1; Compound Concentration 0.5 uM, Timepoint 24 hours, 24 h, 0.5 µM) was -5.778% and -2.388% and the autophagy induction (TERT-RPE1; Compound Concentration 0.5 uM, Timepoint 36 hours, 36 h, 0.5 µM) was -6.915% and -5.4%. The autophagy induction (TERT-RPE1; Compound Concentration 0.5 uM, Timepoint 60 hours, 60 h, 0.5 µM) was -6.339% and -4.703%, the autophagy induction (TERT-RPE1; Compound Concentration 2 uM, Timepoint 12 hours, 12 h, 2 µM) was 2.252% and 1.572% and the autophagy induction (TERT-RPE1; Compound Concentration 2 uM, Timepoint 24 hours, 24 h, 2 µM) was 3.405% and -0.3092%. The autophagy induction (TERT-RPE1; Compound Concentration 2 uM, Timepoint 36 hours, 36 h, 2 µM) was 0.8288% and 0.6571%, the autophagy induction (TERT-RPE1; Compound Concentration 2 uM, Timepoint 60 hours, 60 h, 2 µM) was 0.7882% and 0.00413% and the autophagy induction (TERT-RPE1; Compound Concentration 10 uM, Timepoint 12 hours, 12 h, 10 µM) was 9.462% and -4.43%. The autophagy induction (TERT-RPE1; Compound Concentration 10 uM, Timepoint 24 hours, 24 h, 10 µM) was 9.8196% and -3.782%, the autophagy induction (TERT-RPE1; Compound Concentration 10 uM, Timepoint 36 hours, 36 h, 10 µM) was 10.3694% and -2.886% and the autophagy induction (TERT-RPE1; Compound Concentration 10 uM, Timepoint 60 hours, 60 h, 10 µM) was 10.0597% and -2.862%. For the same molecule, the autophagy induction (U2OS [1]; [3]) was 7.971%, the autophagy induction (U2OS [1]; [4]) was 2.814% and the autophagy induction (U2OS [1]; [5]) was -58.1103%. The autophagy induction (U2OS [1]; [6]) was -0.9818%, the autophagy induction (U2OS [1]; [7]) was 3.199% and the autophagy induction (U2OS [1]; [8]) was -2.198%. It also gave an autophagy induction (U2OS [1]; [9]) of -60.437%, an autophagy induction (U2OS [1]; [10]) of -1.323% and an autophagy induction (U2OS [1]; [11]) of 0.2414%. It also gave an autophagy induction (U2OS [1]; [12]) of -3.3271%, an autophagy induction (U2OS [1]; [13]) of -60.2602% and an autophagy induction (U2OS [1]; [14]) of -0.5763%. It also gave an autophagy induction (U2OS [2]; [3]) of 1.872%, an autophagy induction (U2OS [2]; [4]) of -1.476% and an autophagy induction (U2OS [2]; [5]) of -3.077%. For the same molecule, the autophagy induction (U2OS [2]; [6]) was -6.595%, the autophagy induction (U2OS [2]; [7]) was -4.8354% and the autophagy induction (U2OS [2]; [8]) was -5.442%. The autophagy induction (U2OS [2]; [9]) was -4.18%, the autophagy induction (U2OS [2]; [10]) was -14.3215% and the autophagy induction (U2OS [2]; [11]) was -0.5241%. It also gave an autophagy induction (U2OS [2]; [12]) of -0.2798%, an autophagy induction (U2OS [2]; [13]) of -5.149% and an autophagy induction (U2OS [2]; [14]) of -3.023%.
